According to ChEMBL document CHEMBL1130812, “The design and synthesis of inhibitors of the cysteinyl protease, Der p I” (Bioorg Med Chem Lett, 1998):
Where a SMILES comes first, the peptide text is derived from it. The star is where a group is joined. Boc = CC(C)(C)OC(=O)*

How the values were obtained:
[1] = Inhibitory activity against Cysteinyl protease was evaluated; set-up: species or system Dermatophagoides pteronyssinus
[2] = system: Dermatophagoides pteronyssinus; assay: Inhibitory activity against Cysteinyl protease was evaluated by method A in experiment 1
[3] = system: Dermatophagoides pteronyssinus; assay: Inhibitory activity against Cysteinyl protease was evaluated by method A in experiment 2
[4] = system: Dermatophagoides pteronyssinus; assay: Inhibitory activity against Cysteinyl protease was evaluated by method A
[5] = system: Dermatophagoides pteronyssinus; assay: Inhibitory activity against Cysteinyl protease was evaluated by method B
[6] = Reversible Inhibitory activity on Cysteinyl protease was evaluated; set-up: species or system Dermatophagoides pteronyssinus

A Ki [1] of 14 nM was found for `CC(C)C[C@@H](C=O)NC(=O)[C@H](C)NC(=O)[C@@H](NC(=O)OC(C)(C)C)C(C)C` (Boc-Val-Ala-Leu-aldehyde) in this work.

A k obs / 1 [2] of 370000 M⁻¹ s⁻¹ and a k obs / 1 [3] of 50000 M⁻¹ s⁻¹ were found for `CCCC[C@H](NC(=O)[C@H](C)NC(=O)[C@@H](NC(=O)c1ccccc1)C(C)C)C(=O)COC(=O)c1ccccc1` in this work.

A k obs / 1 [2] of 2300 M⁻¹ s⁻¹ and a k obs / 1 [3] of 350000 M⁻¹ s⁻¹ were found for `CC(C)C[C@@H](/C=C/S(=O)(=O)Cc1ccccc1)NC(=O)[C@H](C)NC(=O)[C@@H](NC(=O)OC(C)(C)C)C(C)C` in this work.

A k obs / 1 [2] of 1700 M⁻¹ s⁻¹ and a k obs / 1 [3] of 7900 M⁻¹ s⁻¹ were found for `CCOC(=O)/C=C/[C@H](CC(C)C)NC(=O)[C@H](C)NC(=O)[C@@H](NC(=O)OC(C)(C)C)C(C)C` in this work.

A k obs / 1 [2] of 1100 M⁻¹ s⁻¹ and a k obs / 1 [3] of 11000 M⁻¹ s⁻¹ were found for `CC(C)C[C@@H](/C=C/S(C)(=O)=O)NC(=O)[C@H](C)NC(=O)[C@@H](NC(=O)OC(C)(C)C)C(C)C` in this work.

A k obs / 1 [4] of under 100 M⁻¹ s⁻¹ was found for `CCOC(=O)/C=C/[C@H](CC(C)C)NC(=O)[C@H](C)NC(=O)[C@@H](NC(C)=O)C(C)C` in this work.

A k obs / 1 [5] of 6.8e+07 M⁻¹ s⁻¹ was found for `CCCC[C@H](NC(=O)[C@H](C)NC(=O)[C@@H](NC(=O)c1ccccc1)C(C)C)C(=O)COC(=O)c1c(Cl)cccc1Cl` in this work.

A k obs / 1 [2] of 4100 M⁻¹ s⁻¹ and a k obs / 1 [3] of 16000 M⁻¹ s⁻¹ were found for `CCOC(=O)/C=C/[C@H](CC(C)C)NC(=O)[C@H](C)NC(=O)[C@@H](NC(=O)c1ccccc1)C(C)C` in this work.

A k obs / 1 [5] of 1.6e+07 M⁻¹ s⁻¹ was found for `CCCC[C@H](NC(=O)[C@H](C)NC(=O)[C@@H](NC(=O)c1ccccc1)C(C)C)C(=O)COC(=O)c1c(C)cccc1C` in this work.

A k obs / 1 [2] of 6400 M⁻¹ s⁻¹ and a k obs / 1 [3] of 25000 M⁻¹ s⁻¹ were found for `CC(C)C[C@@H](/C=C/S(=O)(=O)c1ccccc1)NC(=O)[C@H](C)NC(=O)[C@@H](NC(=O)OC(C)(C)C)C(C)C` in this work.

A Ki [6] of 1.6 nM was found for `CCCC[C@H](NC(=O)[C@H](C)NC(=O)[C@@H](NC(=O)c1ccccc1)C(C)C)C(=O)CBr` in this work.

A k obs / 1 [5] of 1.3e+07 M⁻¹ s⁻¹, a k obs / 1 [2] of 1e+06 M⁻¹ s⁻¹ and a k obs / 1 [3] of 2.2e+06 M⁻¹ s⁻¹ were found for `CCCC[C@H](NC(=O)[C@H](C)NC(=O)[C@@H](NC(=O)c1ccccc1)C(C)C)C(=O)COC(=O)c1c(C(F)(F)F)cccc1C(F)(F)F` in this work.

A k obs / 1 [4] of under 100 M⁻¹ s⁻¹ was found for `CCOC(=O)/C=C/[C@H](CC(C)C)NC(=O)[C@H](C)NC(=O)[C@@H](N)C(C)C` in this work.
